Experimental data: US10106559B2, “Substituted tetrahydrocarbazole and carbazole carboxamide compounds” (BRISTOL-MYERS SQUIBB COMPANY, priority 2013, dated 2018)
pIC50: −log10 of the molar value.

Legend:
[1] = target: human recombinant Btk (Homo sapiens (Human), UniProt Q06187); assay: Human Recombinant Btk Enzyme Assay; type: biochemical
[2] = target: Jak2 tyrosine kinase (Homo sapiens (Human), UniProt O60674); assay: Jak2 Tyrosine Kinase Assay; type: biochemical; details: for Ratio of Jak2/Btk IC50 values: selectivity: Jak2 IC50 divided by Btk IC50
Sequence of Jak2 tyrosine kinase (O60674 whole entry): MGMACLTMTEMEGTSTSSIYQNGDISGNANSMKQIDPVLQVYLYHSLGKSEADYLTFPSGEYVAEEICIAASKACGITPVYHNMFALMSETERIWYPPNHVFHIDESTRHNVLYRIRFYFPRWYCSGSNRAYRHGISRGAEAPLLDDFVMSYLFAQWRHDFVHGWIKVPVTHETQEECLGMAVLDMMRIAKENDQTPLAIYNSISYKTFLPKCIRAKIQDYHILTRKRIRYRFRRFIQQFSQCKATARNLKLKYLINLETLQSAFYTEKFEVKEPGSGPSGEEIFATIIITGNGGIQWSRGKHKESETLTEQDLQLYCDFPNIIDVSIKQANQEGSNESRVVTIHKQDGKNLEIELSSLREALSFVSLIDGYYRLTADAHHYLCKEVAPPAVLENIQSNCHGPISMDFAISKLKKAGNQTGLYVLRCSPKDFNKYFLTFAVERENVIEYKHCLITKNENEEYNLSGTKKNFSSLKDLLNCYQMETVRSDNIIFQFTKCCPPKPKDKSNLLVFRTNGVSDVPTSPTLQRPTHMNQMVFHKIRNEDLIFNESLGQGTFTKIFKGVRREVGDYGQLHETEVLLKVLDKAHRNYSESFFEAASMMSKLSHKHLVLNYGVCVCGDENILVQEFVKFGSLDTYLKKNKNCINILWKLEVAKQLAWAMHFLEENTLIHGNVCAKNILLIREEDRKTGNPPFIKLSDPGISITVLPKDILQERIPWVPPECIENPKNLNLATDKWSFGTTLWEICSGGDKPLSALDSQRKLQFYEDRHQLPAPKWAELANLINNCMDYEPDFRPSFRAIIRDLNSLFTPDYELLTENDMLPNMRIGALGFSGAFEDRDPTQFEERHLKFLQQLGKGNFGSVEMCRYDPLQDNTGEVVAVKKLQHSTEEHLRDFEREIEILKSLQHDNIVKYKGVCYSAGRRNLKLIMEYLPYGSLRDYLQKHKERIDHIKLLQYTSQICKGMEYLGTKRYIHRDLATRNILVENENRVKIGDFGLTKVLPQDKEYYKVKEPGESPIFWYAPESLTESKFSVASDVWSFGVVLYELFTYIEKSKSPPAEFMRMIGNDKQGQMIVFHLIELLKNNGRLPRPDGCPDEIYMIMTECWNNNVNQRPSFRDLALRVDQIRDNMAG

[3] = system: CD69 expression on B cells in human whole blood; assay: Whole Blood Assay of BCR-Stimulated CD69 Expression on B Cells; type: cell-based; details: B-cell

Sequence of human recombinant Btk (Q06187 whole entry): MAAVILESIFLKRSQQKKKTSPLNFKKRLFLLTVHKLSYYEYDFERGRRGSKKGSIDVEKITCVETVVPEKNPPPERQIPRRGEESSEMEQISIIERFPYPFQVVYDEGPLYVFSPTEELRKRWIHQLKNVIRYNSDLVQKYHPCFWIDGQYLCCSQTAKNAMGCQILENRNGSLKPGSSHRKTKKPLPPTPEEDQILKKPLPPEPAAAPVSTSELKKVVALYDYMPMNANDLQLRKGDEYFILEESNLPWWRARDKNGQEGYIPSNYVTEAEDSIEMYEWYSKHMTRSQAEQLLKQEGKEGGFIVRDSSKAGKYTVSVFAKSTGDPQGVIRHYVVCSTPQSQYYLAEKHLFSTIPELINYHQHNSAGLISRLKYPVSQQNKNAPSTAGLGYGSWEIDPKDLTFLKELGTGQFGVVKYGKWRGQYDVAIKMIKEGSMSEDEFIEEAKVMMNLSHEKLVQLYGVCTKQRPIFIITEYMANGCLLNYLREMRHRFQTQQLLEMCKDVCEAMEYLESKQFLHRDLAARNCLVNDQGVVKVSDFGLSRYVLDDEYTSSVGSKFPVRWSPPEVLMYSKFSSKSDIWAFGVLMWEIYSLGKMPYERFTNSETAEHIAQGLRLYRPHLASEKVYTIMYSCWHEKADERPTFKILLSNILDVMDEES

SMILES | pIC50 [1] | pIC50 [2] | Ratio of Jak2/Btk IC50 values [2] | pIC50 [3]
Cc1c(-c2c(F)cc(C(N)=O)c3[nH]c4cc(C(C)(C)O)ccc4c23)cccc1-n1c(=O)[nH]c2cc(F)ccc2c1=O (single isomer, unassigned) [Example 51] | 9.52 | < 5.70 | >6700 | 6.72
Cc1c(-c2c(C#N)cc(C(N)=O)c3[nH]c4cc(C(C)(C)O)ccc4c23)cccc1-n1c(=O)cc2c(Cl)cccn2c1=O (single isomer, unassigned) [Example 72] | 9.31 | 6.11 | 1600 | 6.70
Cc1cc(C(N)=O)c2[nH]c3cc(C(C)(C)O)ccc3c2c1-c1cccc(-n2c(=O)cc3c(Cl)cccn3c2=O)c1C [Example 71] | 9.39 | 6.10 |  | 
Cc1c(-c2c(F)cc(C(N)=O)c3[nH]c4cc(C(C)(C)O)ccc4c23)cccc1-n1c(=O)[nH]c2c(Cl)cccc2c1=O (single isomer, unassigned) [Example 53] | 8.96 | 5.66 | 2000 | 
Cc1c(-c2c(F)cc(C(N)=O)c3[nH]c4cc(C(C)(C)O)ccc4c23)cccc1-n1c(=O)[nH]c2c(Cl)cccc2c1=O (single isomer, unassigned) [Example 54] | 9.46 | 5.92 | 3400 | 
Cc1c(-c2c(Cl)cc(C(N)=O)c3[nH]c4cc(C(C)(C)O)ccc4c23)cccc1-n1c(=O)[nH]c2c(F)cc(F)cc2c1=O (single isomer, unassigned) [Example 48] | 9.48 | 5.96 | 3300 | 7.60
Cc1c(-c2c(F)cc(C(N)=O)c3[nH]c4cc(C(C)(C)O)ccc4c23)cccc1-n1c(=O)[nH]c2c(F)cc(F)cc2c1=O [Example 49] | 9.11 | < 5.70 | >2600 | 7.77
Cc1cc(C(N)=O)c2[nH]c3cc(C(C)(C)O)ccc3c2c1-c1cccc(-n2c(=O)[nH]c3c(F)cccc3c2=O)c1C (single isomer, unassigned) [Example 66] | 9.47 |  |  | 7.05
